Assay [1] deals with T1, unphosphorylated T315I Abl kinase domain (Mus musculus, UniProt P00520, T315I).
T1 construct: purified and unphosphorylated T315I Abl kinase domain; made in house; host or cells: E. coli BL21(DE3) (Codon+RIL or pSA0145 strain)
T1 sequence (P00520 242-493 T315I limits assumed): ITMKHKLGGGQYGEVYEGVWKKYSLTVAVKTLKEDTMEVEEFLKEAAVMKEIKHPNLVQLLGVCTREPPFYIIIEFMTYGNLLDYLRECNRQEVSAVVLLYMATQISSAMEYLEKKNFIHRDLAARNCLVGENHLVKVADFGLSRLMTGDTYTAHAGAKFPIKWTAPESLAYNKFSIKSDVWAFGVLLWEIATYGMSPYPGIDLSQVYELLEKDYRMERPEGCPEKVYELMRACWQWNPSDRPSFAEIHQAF
Briefly: c-Abl T315I 0P bioassay (pyruvate kinase/lactate dehydrogenase coupled enzyme assay). The class given is biochemical. Conditions: zero phosphorylation state (0P), 10 μM ATP, read-out: AbI T315I 0P IC50.

The target in assay [2] is Ba/F3 cells, ABL1 WT (Homo sapiens, UniProt P00519). Put plainly: 96-well XTT cell survival assay, Ba/F3 ABL1 WT. The class given is cell-based. Conditions: 72 hours, read-out: ABL1 WT XTT [Ba/F3] IC50. The gist of the method:
(§1)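 Ba/F3 cells carrying wild-type or T315I ABL1 were seeded at 5000-8000 per well with graded compound concentrations in duplicate and grown 72 hours at 37° C. Survival was read by XTT/PMS reduction after a further 2-6 h, as absorbance at 405 nm with 650 nm background correction.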
In general terms: Tetrazolium assays rely on reduction of a dye to a coloured formazan, in cell work by metabolically active cells.

In assay [3] the target is Ba/F3 cells, ABL1 T315I (Homo sapiens, UniProt P00519, T315I, cells depend on it). Put plainly: 96-well XTT cell survival assay, Ba/F3 ABL1 T315I. It counts as cell-based. Conditions: 72 hours, read-out: ABL1 T315I XTT [Ba/F3] IC50. The gist of the method: as §1

pIC50: −log10 of the molar value.

Our source for the IC50 and GI50 values is patent US8242280B2, “Fused ring heterocycle kinase modulators” (SGX Pharmaceuticals, Inc., priority 2007, dated 2012).

As usually defined, the pIC50 is −log10 of the IC50, conventionally taken in molar units.

As for `COc1ccccc1-c1c[nH]c2ncc(-c3cccc(C(N)C(=O)N(C)CCN(C)C)c3)cc12` (stereo not drawn), the pIC50 in assay [1] is above 7.30. Besides, the GI50 in assay [2] and in assay [3] was above 1000 nM throughout.
In the case of `COc1ccccc1-c1c[nH]c2ncc(-c3cncc([C@@H](O)C(=O)N(C)C)c3)cc12`, the pIC50 in assay [1] was above 7.30. For the same molecule, the GI50 in assay [2] and in assay [3] was below 1000 nM in each case.
`CN(C)C(=O)C(O)c1cncc(-c2cnc3[nH]cc(-c4ccnn4CCO)c3c2)c1` (stereo not drawn): the pIC50 in assay [1] is 6.30 to 7.30. Besides, the GI50 in assay [2] and in assay [3] was above 1000 nM in each case.
On to `COc1ccc(-c2c[nH]c3ncc(-c4cncc(C(O)C(=O)N(C)C)c4)cc23)cc1` (stereo not drawn), for which the pIC50 in assay [1] is above 7.30. The GI50 in assay [2] and in assay [3] was above 1000 nM in each case.
Take `CN(C)C(=O)C(O)c1cncc(-c2cnc3[nH]cc(-c4ccccc4Cl)c3c2)c1` (stereo not drawn): the pIC50 in assay [1] was above 7.30. The GI50 in assay [2] and in assay [3] was below 1000 nM throughout.
As for `COc1ccccc1-c1n[nH]c2ncc(-c3cccc([C@@H]4OCO[C@@H]4C(C)C)c3)cc12`, in assay [1], the negative-log IC50 (pIC50) was above 7.30. The GI50 in assay [2] and in assay [3] was above 1000 nM throughout.
As to `CN(C)C(=O)C(O)c1cncc(-c2cnc3[nH]cc(-c4cnc(N)s4)c3c2)c1` (stereo not drawn), the pIC50 in assay [1] was above 7.30. The GI50 in assay [2] and in assay [3] was above 1000 nM in each case.
As to `COc1ccccc1-c1n[nH]c2ncc(-c3cccc(C(C)C(=O)N4CCC(O)C4)c3)cc12` (stereo not drawn), in assay [1], the negative logarithm of the IC50 (pIC50) is above 7.30. Further, the GI50 in assay [2] and in assay [3] was above 1000 nM each time.
`CN(C)C(=O)C(O)c1cncc(-c2cnc3[nH]cc(-c4cncnc4)c3c2)c1` (stereo not drawn): the pIC50 in assay [1] was below 6.30. The GI50 in assay [2] and in assay [3] was above 1000 nM in each case.
`CN(C)C(=O)C(O)c1cncc(-c2cnc3[nH]cc(-c4ccccc4OC4CC4)c3c2)c1` (stereo not drawn): the pIC50 in assay [1] is above 7.30. Further, the GI50 in assay [2] and in assay [3] was below 1000 nM throughout.
For the molecule `CN(C)C(=O)C(O)c1cncc(-c2cnc3[nH]cc(-c4ccnn4-c4ccccc4)c3c2)c1` (stereo not drawn), the pIC50 in assay [1] is above 7.30. Further, the GI50 in assay [2] is below 1000 nM; in assay [3], above 1000 nM.
For `Cc1ccc(-c2c[nH]c3ncc(-c4cncc(C(O)C(=O)N(C)C)c4)cc23)cc1` (stereo not drawn), in that order: above 7.30, above 1000 nM and above 1000 nM.
For `COc1ccccc1-c1n[nH]c2ncc(-c3cccc([C@@H](O)[C@H](O)C(C)C)c3)cc12`, in that order: above 7.30, below 1000 nM and below 1000 nM.
For `CN(C)C(=O)C(O)c1cncc(-c2cnc3[nH]cc(-c4ccc(F)cc4)c3c2)c1` (stereo not drawn), the pIC50 in assay [1] was above 7.30. Besides, the GI50 in assay [2] and in assay [3] was above 1000 nM each time.
On to `COc1ccccc1-c1c[nH]c2ncc(-c3cccc(C4(C)NC(=O)NC4=O)c3)cc12` (stereo not drawn), for which the pIC50 in assay [1] is above 7.30. For the same molecule, the GI50 in assay [2] was below 1000 nM; in assay [3], above 1000 nM.
For `COc1ccccc1-c1c[nH]c2ncc(-c3cccc(C(N)C(=O)N(C)C)c3)cc12` (stereo not drawn), in that order: above 7.30, below 1000 nM and below 1000 nM.
Turning to `CN(C)C(=O)C(O)c1cncc(-c2cnc3[nH]cc(-c4ccnn4C)c3c2)c1` (stereo not drawn) [drawing 464], the pIC50 in assay [1] was 6.30 to 7.30. In addition, the GI50 in assay [2] and in assay [3] was above 1000 nM in each case.
As for `COc1ccccc1-c1n[nH]c2ncc(-c3cccc([C@@H](C)O)c3)cc12`, the pIC50 in assay [1] was above 7.30. The GI50 in assay [2] and in assay [3] was below 1000 nM each time.
With `CNCCN(C)C(=O)C(N)c1cccc(-c2cnc3[nH]cc(-c4ccccc4OC)c3c2)c1` (stereo not drawn), the negative-log IC50 (pIC50) in assay [1] is above 7.30. Moreover, the GI50 in assay [2] and in assay [3] was above 1000 nM each time.
Consider `CN(C)C(=O)C(O)c1cncc(-c2cnc3[nH]cc(-c4cccc5c4OC(F)(F)O5)c3c2)c1` (stereo not drawn), for which, in assay [1], the negative-log IC50 (pIC50) was above 7.30. The GI50 was below 1000 nM in assay [2] and above 1000 nM in assay [3].
On to `COc1ccccc1-c1c[nH]c2ncc(-c3cccc(C(O)c4ccccn4)c3)cc12` (stereo not drawn), for which, in assay [1], the negative-log IC50 (pIC50) was above 7.30. In addition, the GI50 in assay [2] and in assay [3] was below 1000 nM each time.
`COc1ccccc1-c1c[nH]c2ncc(-c3cc(C(O)C(=O)N(C)C)ccn3)cc12` (stereo not drawn): the pIC50 in assay [1] was above 7.30. Moreover, the GI50 in assay [2] and in assay [3] was above 1000 nM each time.
On to `COc1ccccc1-c1n[nH]c2ncc(-c3cccc(C(O)C(=O)N(C)C)n3)cc12` (stereo not drawn), for which the pIC50 in assay [1] was above 7.30. Also, the GI50 in assay [2] and in assay [3] was above 1000 nM in each case.
For the molecule `COc1ccccc1-c1c[nH]c2ncc(-c3cncc(C(O)C(=O)N(C)C)c3)cc12` (stereo not drawn), the pIC50 in assay [1] was above 7.30. The GI50 in assay [2] and in assay [3] was below 1000 nM throughout.
Take `CCc1ccccc1-c1c[nH]c2ncc(-c3cncc(C(O)C(=O)N(C)C)c3)cc12` (stereo not drawn): in assay [1], the negative logarithm of the IC50 (pIC50) is above 7.30. The GI50 in assay [2] and in assay [3] was below 1000 nM throughout.
Consider `COc1ccccc1-c1c[nH]c2ncc(-c3cccc(C(O)C(=O)N(C)C4CCOCC4)c3)cc12` (stereo not drawn), for which the pIC50 in assay [1] was above 7.30. Also, the GI50 in assay [2] and in assay [3] was below 1000 nM throughout.
With `CN(C)C(=O)C(O)c1cncc(-c2cnc3[nH]cc(-c4ccc5c(c4)OCO5)c3c2)c1` (stereo not drawn), the pIC50 in assay [1] is above 7.30. For the same molecule, the GI50 is below 1000 nM in assay [2] and above 1000 nM in assay [3].
As to `Cc1n[nH]c(C)c1-c1c[nH]c2ncc(-c3cncc(C(O)C(=O)N(C)C)c3)cc12` (stereo not drawn), the pIC50 in assay [1] was above 7.30. In addition, the GI50 in assay [2] and in assay [3] was above 1000 nM each time.
`COc1ccccc1-c1n[nH]c2ncc(-c3cccc(C(O)C(=O)N(C)C)c3)cc12` (stereo not drawn): in assay [1], the negative logarithm of the IC50 (pIC50) was above 7.30. The GI50 in assay [2] and in assay [3] was below 1000 nM throughout.
For the molecule `CN(C)C(=O)C(O)c1cncc(-c2cnc3[nH]cc(-c4cccc(N(C)C)c4)c3c2)c1` (stereo not drawn), the pIC50 in assay [1] was above 7.30. For the same molecule, the GI50 in assay [2] is below 1000 nM; in assay [3] it was above 1000 nM.
Turning to `COc1ccccc1-c1n[nH]c2ncc(-c3cccc(C(O)c4ncco4)c3)cc12` (stereo not drawn), the pIC50 in assay [1] is above 7.30. For the same molecule, the GI50 in assay [2] was below 1000 nM; in assay [3] it was above 1000 nM.
Consider `COc1ccccc1-c1n[nH]c2ncc(-c3cccc([C@H]4OCO[C@@H]4C(C)C)c3)cc12`, for which, in assay [1], the negative-log IC50 (pIC50) was above 7.30. For the same molecule, the GI50 in assay [2] and in assay [3] was above 1000 nM throughout.
With `COc1ncccc1-c1c[nH]c2ncc(-c3cncc(C(O)C(=O)N(C)C)c3)cc12` (stereo not drawn), the pIC50 in assay [1] is above 7.30. Also, the GI50 in assay [2] is below 1000 nM; in assay [3] it was above 1000 nM.
Consider `COc1ccccc1-c1n[nH]c2ncc(-c3cccc(C(N)C(=O)N4CC(O)C4)c3)cc12` (stereo not drawn), for which the pIC50 in assay [1] was above 7.30. Moreover, the GI50 in assay [2] and in assay [3] was above 1000 nM throughout.
Regarding `COc1ccccc1-c1n[nH]c2ncc(-c3cccc(C(OC)C(=O)N(C)C)c3)cc12` (stereo not drawn), the negative-log IC50 (pIC50) in assay [1] was above 7.30. For the same molecule, the GI50 in assay [2] and in assay [3] was below 1000 nM in each case.
Consider `CN(C)C(=O)C(O)c1cncc(-c2cnc3[nH]cc(-c4ccccc4F)c3c2)c1` (stereo not drawn), for which the pIC50 in assay [1] was above 7.30. Besides, the GI50 in assay [2] and in assay [3] was below 1000 nM each time.
On to `CNC(=O)C(O)c1cccc(-c2cnc3[nH]nc(-c4ccccc4OC)c3c2)c1` (stereo not drawn), for which the pIC50 in assay [1] is above 7.30. The GI50 in assay [2] and in assay [3] was below 1000 nM throughout.
As to `COc1ccccc1-c1n[nH]c2ncc(-c3cccc(C(O)C(=O)N4CCC(N(C)C)C4)c3)cc12` (stereo not drawn), the pIC50 in assay [1] was above 7.30. In addition, the GI50 in assay [2] and in assay [3] was below 1000 nM each time.
As for `COc1ccccc1-c1n[nH]c2ncc(-c3cccc(C(C)C(=O)N4CCC(N(C)C)CC4)c3)cc12` (stereo not drawn), in assay [1], the pIC50 was above 7.30. The GI50 in assay [2] and in assay [3] was below 1000 nM in each case.
On to `COc1ccccc1-c1c[nH]c2ncc(-c3cncc([C@H](O)C(=O)N(C)C)c3)cc12`, for which the pIC50 in assay [1] was above 7.30. The GI50 in assay [2] and in assay [3] was below 1000 nM throughout.
As to `COc1ccccc1-c1c[nH]c2ncc(-c3cc(C(O)C(=O)N(C)C)ncn3)cc12` (stereo not drawn), in assay [1], the pIC50 was 6.30 to 7.30. For the same molecule, the GI50 in assay [2] and in assay [3] was above 1000 nM throughout.
Take `CC(=O)c1ccccc1-c1c[nH]c2ncc(-c3cncc(C(O)C(=O)N(C)C)c3)cc12` (stereo not drawn): the pIC50 in assay [1] was 6.30 to 7.30. Also, the GI50 in assay [2] and in assay [3] was above 1000 nM in each case.
Regarding `CN(C)C(=O)C(O)c1cc(-c2cnc3[nH]cc(-c4ccccc4F)c3c2)cnc1N` (stereo not drawn), the pIC50 in assay [1] was above 7.30. The GI50 in assay [2] and in assay [3] was below 1000 nM throughout.
Regarding `COc1ccccc1-c1n[nH]c2ncc(-c3cccc([C@H](O)[C@@H](O)C(C)C)c3)cc12`, the pIC50 in assay [1] is above 7.30. For the same molecule, the GI50 in assay [2] and in assay [3] was below 1000 nM in each case.
As for `COc1ccccc1-c1c[nH]c2ncc(-c3cccc(C(F)C(=O)N(C)C)c3)cc12` (stereo not drawn), the pIC50 in assay [1] is above 7.30. For the same molecule, the GI50 in assay [2] and in assay [3] was above 1000 nM in each case.
Turning to `COc1ccccc1-c1c[nH]c2ncc(-c3cccc(C(O)C(=O)N(C)CC4CCN(C)CC4)c3)cc12` (stereo not drawn), in assay [1], the pIC50 is above 7.30. Besides, the GI50 in assay [2] and in assay [3] was below 1000 nM throughout.
